Data from patent publication EP3666770A1, “NOVEL HETEROCYCLIC COMPOUNDS AS CDK8/19 INHIBITORS” (Joint Stock Company "Biocad", priority 2017, dated 2019).
Read-outs that look alike come from different tables or passages of the source.

How the values were obtained:
[1] = Chemical stability in simulated gastric fluid (SGF); type: physicochemical; settings: SGF without enzymes, pH=1,4; 10 µm; 2 hours at 37°C; substance amount in % after thermostatting
Protocol: (§1) Chemical stability of the compounds described herein was determined in simulated gastric fluid and human blood plasma.
SGF concentrate without enzymes, pH=1,4 (Sigma Ireland, cat#01651) was used as simulated gastric fluid. Initial candidate solution (10 mM in DMSO) was diluted with an SGF working solution to a concentration of […] (test solution). The test solution was incubated in a dry block thermostat for 2 hours at 37°C. HPLC with Agilent 1200 liquid chromatography system (Agilent, USA) was employed to determine peak areas of the compounds in test samples, said peak areas corresponding to the initial test time (prior to incubation) and the final test time (after incubation in a dry block thermostat for 2 hours at 37°C). Chromatographic analysis was performed in a gradient elution regime with a flow rate of 1 mL/min. Substance amount in % in a sample after thermostatting was determined.

[2] = General cytotoxicity test on HepG2 cells; type: cell-based; settings: human, HepG2 cells; 72 h incubation; 200 to 0.78 µM; average values of several tests; read-out: Hep-G2 CC50, mkM
Protocol: Cell viability was assessed using the above method. Table 6. […] The results are presented as average values of activity obtained in several tests.

[3] = system: MV4-11; assay: Cell-based antiproliferative test (AlamarBlue), MV4-11; settings: Homo sapiens, MV4-11, 120 h, read-out: MV-4-11 IC50, mkM
Protocol: Antiproliferative activity of CDK8 inhibitors according to the present invention was measured in a cell-based test on continuous cell cultures MV4-11 (biphenotypic myelomonocytic leukemia, ATCC® CRL-9591™), KG-1 (acute myeloid leukemia, ATCC® CCL-246™), HL-60 (acute promyelocytic leukemia, ATCC® CCL-240™) using a vital stain AlamarBlue (ThermoFisher, #DAL1100). The cells were grown in RPMI-1640 (PanEco, #C330p) medium with addition of 10% FBS (Gibco, #16140-071); washed and resuspended in culture medium with 10% FBS (Gibco, #16140-071) in 96-well culture plates (Corning, #3599) with ≈ 10 ×10^3 cells in […] of medium per well. The compounds in question were dissolved in DMSO and diluted with a medium with 10% FBS (Gibco, #16140-071) to a final concentration ranging form 0 to 100 µM. […] of diluted compounds were then added to each well (final DMSO concentration was less than 1%) and incubated under 5% CO2 atmosphere at 37°C for 120 h. After incubating, 15 µL of AlamarBlue (ThermoFisher, #DAL1100) reagent was added per well, contents of plates were mixed in an orbital shaker (Biosan, Latvia) and further incubated for 3-5 h at 37°C under 5% CO2 atmosphere. Number of living cells was estimated using a microplate spectrophotometer (Tecan Infinite M200Pro, Switzerland) measuring fluorescent signal at the excitation wavelength (λEx) of 540 nm and emission wavelength (λEm) of 590 nm.
IC50 was calculated using Magellan 7.2 software (Tecan, Switzerland) approximating experimental points by four-parameter logistic model with the optimization by Levenberg-Marquardt (table 7, table 7).

[4] = Chemical stability in human blood plasma; type: in vitro ADME; settings: pooled human blood plasma; 10 µM; 4 hours at 37°C; substance amount in % after thermostatting
Protocol: as §1
Determination of stability in human blood plasma was performed using pooled human blood plasma taken from ten healthy donors. The initial candidate solution (10 mM in DMSO) was diluted with pooled blood plasma to a concentration of […] (test solution). The test solution was incubated in a dry block thermostat for 4 hours at 37°C. HPLC with Agilent 1200 liquid chromatography system (Agilent, USA) was employed to determine peak areas of the compounds in test samples, said peak areas corresponding to the initial test time (prior to incubation) and the final test time (after incubation in a dry block thermostat for 4 hours at 37°C), proteins were preliminarily precipitated with acetonitrile. Chromatographic analysis was performed in a gradient elution regime with a flow rate of 1 mL/min. Substance amount in % in a sample after thermostatting was determined.

[5] = Enzyme stability in human liver microsomes; type: in vitro ADME; settings: pH 7.4; 0,5 mg/mL pooled human liver microsomes; 10 µM compound; 37°C; pH=7,4
Protocol: Measuring of candidates' enzyme stability enabled estimation of the stability of the present compounds towards the action of enzymes in liver microsomes.
Enzyme degradation rate was measured by incubating the reaction mixture in a dry block thermostat at 37°C, said reaction mixture comprising 0,5 mg/mL of pooled human liver microsomes (XenoTech, USA, cat#H2620), 10 µM compound, 2 mM β-nicotinamide adenine dinucleotide (Carbosynth, UK, cat#NN10871) and 4 mM magnesium chloride in 0,1 M sodium-phosphate buffer, pH=7,4. The reaction was quenched with acetonitrile (100 µL of acetonitrile / 100 µL of the reaction mixture). After quenching, the samples were centrifuged at 10000 rpm for 10 minutes. Supernatant fluid was tested by chromatographic technique using Agilent1200 (Agilent, USA). Chromatographic analysis was performed in a gradient elution regime with a flow rate of 1 mL/min. A graph of the logarithm of substance's peak area as a function of time was made. The dependent factor of the line corresponded to the elimination rate constant K based on which the drug's half-life t1/2 and degradation rate CLint were calculated: Elimination rate constant (k) = (−gradient) [formula] [formula] V(μL/mg) = (volume of incubation(μL))/(protein in the incubation(mg)) [formula] [formula]

[6] = 120 h incubation, average values of several tests

Row | SMILES | Stability in SGF, % [1] [%] | CC50 at 72 h [2] [µM] | IC50 [3, 6] [nM] | Stability in blood plasma, % [4] [%] | microsomal CLint at 10 µM [5] [µL/min/mg] | IC50 [3] [nM]
1 | Cn1cc(-c2ccc(-c3cncc4ncc(C(=O)N5CC[C@@H](O)C5)cc34)cc2)cn1 [CDK8-3-4, (R)-(3-Hydroxypyrrolidin-1-yl) (5-(4-(1-methyl-1H-pyrazol-4-yl)phenyl)-1,7-naphthyridin-3-yl)methanone] | 100 | 76.4 | 7510 | 100 | – | –
2 | CN1CCN(C(=O)c2cnc3cncc(-c4ccc(N(C)C)cc4)c3c2)CC1 [CDK8-3-8, (5-(4-(Dimethylamino)phenyl)-1,7-naphthyridin-3-yl)(4-methylpiperazin-1-yl) methanone] | 95.4 | > 200 | 7520 | 98 | 18 | –
3 | O=C(c1ccccn1)c1c[nH]c2ncc(-c3ccc(N4CCOCC4)c(O)c3)cc12 [CDK8-4-3, (5-(3-Hydroxy-4-morpholinophenyl)-1H-pyrrolo[2,3-b]pyridin-3-yl) (pyridin-2-yl) methanone] | 100 | > 200 | 1490 | 100 | 22 | –
4 | Cn1cc(-c2ccc(-c3cncc4ncc(N5CC(C(=O)N6CCOCC6)C5)cc34)cc2)cn1 [CDK8-3-9, (1-(5-(4-(1-Methyl-1H-pyrazol-4-yl)phenyl)-1,7-naphthyridin-3-yl)azetidin-3-yl) (morpholino)methanone] | 100 | > 20 | 10000 | 100 | 8.8 | –
5 | Cn1cc(-c2ccc(-c3cncc4ncc(C(=O)N5CCOCC5)cc34)cc2)cn1 [CDK8-3-33, (5-(4-(1-Methyl-1H-pyrazol-4-yl)phenyl)-1,7-naphthyridin-3-yl)(morpholino)methanone] | – | 100 | 2060 | – | – | –
6 | O=C(c1ccnc2ccc(-c3ccc(-c4cn[nH]c4)cc3)cc12)N1CCCCC1 [CDK8-5-4, (6-(4-(1H-Pyrazol-4-yl)phenyl)quinolin-4-yl) (piperidin-1-yl)methanone] | 99.9 | 66.1 | 9560 | 100 | 37 | –
7 | COCCNC(=O)c1cnc2cncc(-c3ccc(-n4ccnc4)cc3)c2c1 [CDK8-3-41] | – | 200 | 572 | – | – | –
8 | COC(=O)c1ccc(-n2cnc3c(F)cc(N4CC(C(=O)Nc5ccccc5)C4)cc32)cc1 [CDK8-1-7E, Methyl 4-(6-(3-(phenylcarbamoyl)azetidin-1-yl)-4-fluoro-1H-benzo[d]imidazol-1-yl)benzoate] | – | > 100 | > 2500 | – | – | –
9 | COC1CN(C(=O)c2ccc3nccc(-c4ccc(-c5cn[nH]c5)cc4)c3c2)C1 [CDK8-6-4, (4-(4-(1H-Pyrazol-4-yl)phenyl)quinolin-6-yl)(3-methoxyazetidin-1-yl) methanone] | 100 | 66.6 | 7790 | 100 | 16.2 | –
10 | N=C(c1ccnc2ccc(-c3ccc(-c4cn[nH]c4)cc3)cc12)N1CCCCC1 [CDK8-5-4i, (6-(4-(1H-Pyrazol-4-yl)phenyl)quinolin-4-yl) (piperidin-1-yl)methanimine] | 98.8 | > 100 | 4320 | 100 | 19 | –
11 | COc1ccc(-n2cnc3ccc(N4CC(C(=O)N5CCOCC5)C4)cc32)cc1 [CDK8-1-12, (1-(1-(4-Methoxyphenyl)-1H-benzo[d]imidazol-6-yl)azetidin-3-yl)(morpholino) methanone] | 98.1 | > 100 | 3380 | 98 | 3 | –
12 | CN(C)c1ccc(-c2cnc3[nH]cc(C(=O)c4cccnc4)c3c2)c(C#N)c1 [CDK8-4-26, 5-(Dimethylamino)-2-(3-nicotinoyl-1H-pyrrolo[2,3-b]pyridin-5-yl)benzonitrile] | 100 | > 100 | 1280 | 100 | 17.6 | –
13 | CN1CCN(Cc2ccc(-c3ccnc4ccc(N5CCC(C)(C(N)=O)CC5)cc34)cc2)CC1 [CDK8-6-3, 4-Methyl-1-(4-(4-((4-methylpiperazin-1-yl)methyl)phenyl)quinolin-6-yl) piperidine-4-carboxamide] | 100 | > 60 | 3180 | – | 18.6 | –
14 | CN(C)c1ccc(-c2cnc3[nH]cc(C(=O)c4ccncc4)c3c2)cc1O [CDK8-4-9, (5-(4-(Dimethylamino)-3-hydroxyphenyl)-1H-pyrrolo.[2,3-b]pyridin-3-yl) (pyridin-4-yl)methanone] | 99.5 | > 200 | 2100 | 100 | 21.6 | –
15 | COc1cc(-c2cnc3[nH]cc(C(=O)c4cccnc4)c3c2)ccc1N(C)C [CDK8-4-25, (5-(4-(Dimethylamino)-3-methoxyphenyl)-1H-pyrrolo[2,3-b]pyridin-3-yl)(pyridin-3-yl)methanone] | 100 | 4.7 | 50 | 100 | 22.2 | –
16 | Cn1cc(-c2ccc(-c3cncc4ncc(C(=O)N5CCC[C@@H](O)C5)cc34)cc2)cn1 [CDK8-3-20, (R)-3-(Hydroxypiperidin-1-yl)(5-(4-(1-methyl-1H-pyrazol-4-yl)phenyl)-1,7-naphthyridin-3-yl)methanone] | – | – | – | – | – | 5040
17 | CN1CCN(C(=O)c2cnc3cncc(-c4ccc(-c5cnn(C)c5)cc4)c3c2)CC1 [CDK8-3-30, (4-Methylpiperazin-1-yl)(5-(4-(1-methyl-1H-pyrazol-4-yl)phenyl)-1,7-naphthyridin-3-yl)methanone] | – | 100 | 412 | – | – | –
18 | COCCOC(=O)c1cnc2cncc(-c3ccc(-c4cnn(C)c4)cc3)c2c1 [CDK8_3_28, 2-Methoxyethyl-5-[4-(methyl-1-H-pyrazol-4-yl)phenyl]-1,7-naphthyridine-3-carboxylate] | – | 48.4 | 871 | – | – | –
19 | CN(C)CCN(C)C(=O)c1cnc2cncc(-c3ccc(-c4cnn(C)c4)cc3)c2c1 [CDK8-3-35, N-(2-(Dimethylamino)ethyl)-N-methyl-5-(4-(1-methyl-1H-pyrazol-4-yl)phenyl)-1,7-naphthyridine-3-carboxamide] | – | 77.4 | 1840 | – | – | –
